Experiments:
[1] = molecular target: TLR2-TLR1 heterodimers (Homo sapiens, UniProt O60603+Q15399); experiment: Potency comparison of TLR2-TLR1 agonists (EC50); format: cell-based; settings: order of magnitude only
[2] = test system: mouse bone marrow-derived dendritic cells (mBMDCs); experiment: mBMDC cytokine assay (wild-type cells; TNFα ELISA, cytometric bead array); format: cell-based; settings: overnight, fractions or purified compounds at 50 μg/ml
Excerpt: Previously, to identify immunoregulatory small molecules from gut microbes, an unbiased functional assay was employed using cytokine release from murine bone marrow-derived dendritic cells (mBMDCs) in response to fractionated bacterial extracts (7). Dendritic cells, which are part of the innate immune system, detect pathogen-associated molecules and relay information to the adaptive immune system through the release of cytokines. It was reasoned that the same approach would identify immunomodulatory molecules produced by A. muciniphila.
These assays were done as described previously (21). Femurs and tibias were collected from male or female wild-type, TLR2^−/−, or TLR4^−/− C57BL/6 mice that were at least 3-4 weeks old and preferably 7-12 weeks of age. The bone marrow was pushed from the bones using a needle and syringe of complete Dulbecco's Modified Eagle Medium (DMEM) (supplemented with Gibco GlutaMAX Supplement (35050061), Gibco Penicillin-Streptomycin (15140122), and 10% heat-inactivated fetal bovine serum (FBS)) and strained through a 70 μm nylon filter. […] Cells were counted and then plated at approximately 5 million cells per plate with ˜20-40 ng/ml RmGM-CSF (PreProTech 315-03). […] The resulting bone marrow derived dendritic cells (mBMDCs), were then scraped and counted again. […] Data was collected with NovoExpress 1.4.1 and analyzed using FlowJo v10.7.

TLR2-TLR1 heterodimers, sequence (O60603 21-784): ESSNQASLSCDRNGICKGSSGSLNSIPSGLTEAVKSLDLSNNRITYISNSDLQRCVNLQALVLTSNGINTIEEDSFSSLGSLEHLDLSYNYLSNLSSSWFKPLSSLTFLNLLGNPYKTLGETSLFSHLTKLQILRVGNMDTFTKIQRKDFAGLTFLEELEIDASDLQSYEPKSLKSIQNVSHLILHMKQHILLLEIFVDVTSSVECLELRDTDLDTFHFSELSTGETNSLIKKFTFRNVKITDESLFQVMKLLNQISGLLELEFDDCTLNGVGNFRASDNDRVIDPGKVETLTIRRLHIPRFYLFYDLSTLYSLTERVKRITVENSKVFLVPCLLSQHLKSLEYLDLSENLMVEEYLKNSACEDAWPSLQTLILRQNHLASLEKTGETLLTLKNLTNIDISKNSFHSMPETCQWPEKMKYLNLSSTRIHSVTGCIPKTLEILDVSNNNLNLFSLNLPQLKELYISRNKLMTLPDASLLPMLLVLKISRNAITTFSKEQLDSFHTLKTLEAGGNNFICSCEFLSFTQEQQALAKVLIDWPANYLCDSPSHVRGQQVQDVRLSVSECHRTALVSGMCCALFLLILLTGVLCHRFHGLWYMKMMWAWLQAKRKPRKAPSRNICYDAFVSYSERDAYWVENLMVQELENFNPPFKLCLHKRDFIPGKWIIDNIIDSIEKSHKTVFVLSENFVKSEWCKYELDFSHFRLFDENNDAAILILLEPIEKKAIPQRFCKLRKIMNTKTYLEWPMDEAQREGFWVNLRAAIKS
TLR2-TLR1 heterodimers, sequence (Q15399 25-786): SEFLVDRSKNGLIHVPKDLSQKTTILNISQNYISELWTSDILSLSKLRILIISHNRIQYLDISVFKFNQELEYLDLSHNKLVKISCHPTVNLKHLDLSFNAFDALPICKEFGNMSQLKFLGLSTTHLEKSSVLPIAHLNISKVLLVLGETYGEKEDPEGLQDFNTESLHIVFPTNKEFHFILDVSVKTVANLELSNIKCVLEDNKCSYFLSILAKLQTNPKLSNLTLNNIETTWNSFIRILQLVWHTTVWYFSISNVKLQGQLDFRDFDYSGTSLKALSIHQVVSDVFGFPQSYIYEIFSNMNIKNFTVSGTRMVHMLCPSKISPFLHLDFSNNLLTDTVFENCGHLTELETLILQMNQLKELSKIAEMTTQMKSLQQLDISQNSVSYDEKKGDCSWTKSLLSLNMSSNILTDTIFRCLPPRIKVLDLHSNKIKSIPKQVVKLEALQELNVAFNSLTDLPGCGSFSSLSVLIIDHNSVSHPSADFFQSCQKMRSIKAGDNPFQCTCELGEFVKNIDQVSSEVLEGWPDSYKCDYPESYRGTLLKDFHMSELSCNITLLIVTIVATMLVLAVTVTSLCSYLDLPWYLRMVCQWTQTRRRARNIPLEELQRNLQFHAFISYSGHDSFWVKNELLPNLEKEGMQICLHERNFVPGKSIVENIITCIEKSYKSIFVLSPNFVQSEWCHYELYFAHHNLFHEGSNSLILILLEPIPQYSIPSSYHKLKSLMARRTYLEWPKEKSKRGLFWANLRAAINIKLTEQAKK

| EC50 values [1] | SMILES | TNFα induction/production [2] |
| --- | --- | --- |
| μM | CC[C@H](C)CCCCCCCCCCC(=O)OC[C@@H](COP(=O)(O)OCCN)OC(=O)CCCCCCCCCCCC(C)C [a15:0-i15:0 PE, 12-methyltetradecanoyl-13-methyltetradecanoyl-sn-glycero-3-phosphoethanolamine] | – |
| – | CCCCCCCCCCCCCCCC(=O)OCC(COP(=O)(O)OCCN)OC(=O)CCCCCCCCCCCCCCC (stereo not drawn) [n16:0-n16:0 PE] | no detectable TNFα induction |
| – | CCCCCCCCCCCCCC(=O)OC[C@H](COP(=O)(O)OCCN)OC(=O)CCCCCCCCCCCCC [n14:0-n14:0 PE] | no detectable TNFα induction |
